These are literature values, as cited in patent publication US4968506A, “Pharmaceutical dosage with core of N-acetyl cystein” (Lejus Medical Aktienbolag, priority 1988, dated 1990).

This data set concerns mucous membrane in the stomach. The settings on record: N-acetyl cysteine.

On to `CC(=O)N[C@@H](CS)C(=O)O` [N-Acetyl cysteine, N-acetyl cysteine], for which the reported side effects entry is recorded as “irritating effect on the mucous membrane in the stomach”.
